Reference: patent US20250017841A1, “COMPOUND CONTAINING ASCORBIC ACID DERIVATIVE” (DR'S CHOICE CO., LTD., priority 2021, published 2025)
Where a name gives a salt, the structure may show the parent alone.

Key:
Format in all cases: physicochemical
[1] = Example 2: degree of browning (chromaticity) on storage with added amino acid mixture; details: 4% solution, room temperature
Method: 4% of ascorbic acid (ASA) is dissolved in 200 ml of water, and the solution is adjusted to pH 5.0 with a 1M sodium hydroxide solution to obtain a test solution. Ascorbic acid 2-glucoside lysine salt (ASA2-G⋅Lys) (Production Example 2) is dissolved in the same manner by 4% to prepare a test solution. An amino acid mixture (histidine 1.5%, alanine 1.28, leucine 2.6%) was added to and dissolved in each test solution, and the solution was stored (at room temperature) for 20 months. Each test solution was collected every designated month, the absorption spectrum (wavelength: 480 nm) was measured, the degree of browning (chromaticity) was evaluated, and the results are shown in FIG. 4.

[2] = Test system: browning of ascorbic acid caused by addition of an amino acid; details: 10 days after production
Method: For a reaction solution of ascorbic acid (1%) and amino acid (0.12%), the difference in degree of browning (chromaticity) based on the type of amino acid was examined for a 10 mM of phosphate citrate buffer solution pH 7.0. • Measurement wavelength: 480 nm, measurement time: 10 days after production

[3] = Example 1: degree of browning (chromaticity) on storage with added glycine; details: 1.5% solution, room temperature
Method: (Effect of addition of ascorbic acid 2-glucoside arginine salt on change in degree of browning (chromaticity) of ascorbic acid by addition of amino acid) 100 ml of water was taken to dissolve 1.5% of ascorbic acid (ASA), and the solution was adjusted to pH 5.0 with a 1M of sodium hydroxide solution to obtain a test solution. Ascorbic acid 2-glucoside arginine salt (ASA2-G⋅Arg) is used as a test solution by dissolving 1.5% of the product of Production Example 1 in 100 ml of water. To each test solution, 0.2% glycine was added and dissolved to prepare a solution, and the solution was stored (at room temperature) for 20 months. This test solution was collected every designated month, the absorption spectrum (wavelength: 480 nm) was measured, the degree of browning (chromaticity) was evaluated, and the results are shown in FIG. 3.
At time 0, the initial state immediately after the preparation was visually observed. In the other designated months, a spectrophotometer (absorption spectrum: wavelength 480 nm) was used for the measurement. In the case of ascorbic acid, browning started to occur at 4 months, transparency was visually observed, and light brown color remarkably appeared at 14 months. Meanwhile, in the ASA2-G⋅Arg added system, the initial state was confirmed.

SMILES	appearance (color) ([1]; amino acid mixture, 20 months)	absorbance (Abs) of the absorption spectrum ([1]; 480 nm, amino acid mixture, 20 months)	degree of browning (chromaticity) ([2]; ascorbic acid 1% + amino acid 0.12% (glycine, histidine, lysine or alanine), 10 mM phosphate citrate buffer pH 7.0, 480 nm)	degree of browning ([2]; ascorbic acid 1% + glycine or histidine 0.12%, pH 7.0, 480 nm)	time at which browning started to occur ([3]; pH 5.0, 0.2% glycine) [months]	time at which light brown color remarkably appeared ([3]; pH 5.0, 0.2% glycine) [months]	time after which browning appeared ([1]; pH 5.0, amino acid mixture (histidine, alanine, leucine)) [months]	appearance (transparency), visual observation ([3]; 0.2% glycine, 20 months)	absorbance (Abs) in the absorption spectrum ([3]; 480 nm, 0.2% glycine, 20 months)
O=C1OC([C@@H](O)CO)C(O)=C1OC1O[C@H](CO)[C@@H](O)[C@H](O)[C@H]1O (stereo partly shown) [ASA2-G⋅Lys, ascorbic acid 2-glucoside lysine salt]	extremely light reddish brown color	0.017							
O=C1O[C@H]([C@@H](O)CO)C(O)=C1O [ascorbic acid, (R)-3,4-dihydroxy-5-((S)-1,2-dihydroxyethyl) furan-2 (5H)-one]	reddish brown color		high	remarkable	4	14	4		
O=C1OC([C@@H](O)CO)C(O)=C1OC1O[C@H](CO)[C@@H](O)[C@H](O)[C@H]1O (stereo partly shown) [ASA2-G⋅Arg, ascorbic acid 2-glucoside arginine salt]								initial state	0.01
